Source: patent publication US11299480B2, “2-arylsulfonamido-N-arylacetamide derivatized STAT3 inhibitors” (University of Hawaii, priority 2017, dated 2022)
Values after ≈ are worked out from the molar mass of the structure shown.

Tested on: not listed separately
Assay: physchem
Conditions: simulated gastric fluid (SGF), pH 1.2, simulated gastric fluid

solubility [µg/mL] | Structure (SMILES)
0.8 (≈ 1.22 µM) | C[C@H](C(=O)N(Cc1ccc(C2CCCCC2)cc1)c1ccc(C(=O)NO)cc1F)N(C)S(=O)(=O)c1c(F)c(F)c(F)c(F)c1F [Example 38, (R)-4-(N-(4-Cyclohexylbenzyl)-2-((2,3,4,5,6-pentafluoro-N-methylphenyl)sulfonamido)propanamido)-3-fluoro-N-hydroxybenzamide]

Target: Stat3 (Mus musculus, UniProt P42227)
Assay: not given
Type: biochemical
Conditions: EMSA; read-out: IC50, inhibition of Stat3 DNA-binding activity in vitro
Experimental: FIG. 1. Effect of select compounds of the present invention on Stat3 DNA-binding activity in vitro. […] Positions of Stat3:DNA complexes in gel are labeled; control lanes (0) represent nuclear extracts pre-treated with 10% DMSO.
Except where indicated, nuclear extracts were pre-incubated with compound for 30 min at room temperature prior to incubation with the radiolabeled probe for 30 min at 30° C. before subjecting to EMSA analysis. Where appropriate, bands corresponding to Stat3:DNA complexes were scanned and quantified for each concentration of compound using ImageJ and plotted as percent of control (DMSO) against concentration of compound, from which the IC50 values were derived.

Chain of Stat3 (P42227 2-770 limits assumed): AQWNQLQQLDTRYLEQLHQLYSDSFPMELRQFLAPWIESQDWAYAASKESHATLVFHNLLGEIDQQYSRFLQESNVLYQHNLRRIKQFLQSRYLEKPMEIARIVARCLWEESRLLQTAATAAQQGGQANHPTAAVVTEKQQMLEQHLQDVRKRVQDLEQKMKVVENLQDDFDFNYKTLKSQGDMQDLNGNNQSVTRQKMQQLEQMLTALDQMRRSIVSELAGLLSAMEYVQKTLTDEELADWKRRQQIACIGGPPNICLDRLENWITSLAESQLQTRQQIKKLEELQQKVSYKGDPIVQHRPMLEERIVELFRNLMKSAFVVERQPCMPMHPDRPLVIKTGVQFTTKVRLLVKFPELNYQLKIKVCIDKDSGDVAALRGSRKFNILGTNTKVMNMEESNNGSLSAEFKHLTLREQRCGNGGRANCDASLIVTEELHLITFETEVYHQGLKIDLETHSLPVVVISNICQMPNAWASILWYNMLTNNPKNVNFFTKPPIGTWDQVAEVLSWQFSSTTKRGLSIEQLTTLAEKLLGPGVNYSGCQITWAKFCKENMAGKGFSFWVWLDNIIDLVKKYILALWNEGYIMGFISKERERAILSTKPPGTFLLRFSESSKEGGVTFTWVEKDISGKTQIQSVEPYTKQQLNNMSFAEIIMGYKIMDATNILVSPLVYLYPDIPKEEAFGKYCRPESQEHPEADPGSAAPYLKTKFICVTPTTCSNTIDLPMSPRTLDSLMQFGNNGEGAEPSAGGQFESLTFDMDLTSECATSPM

IC50 [nM] | Structure (SMILES)
664 ± 167 | NC(=O)c1ccc(N(Cc2ccc(C3CCCCC3)cn2)C(=O)[C@H]2CCN2S(=O)(=O)c2c(F)c(F)c(F)c(F)c2F)cc1O [Example 143, (R)—N-(4-carbamoyl-3-hydroxyphenyl)-N-((5-cyclohexylpyridin-2-yl)methyl)-1-((perfluorophenyl)sulfonyl)azetidine-2-carboxamide]

Same assay, conditions: Stat3 DNA-binding activity in vitro; nuclear extracts pre-incubated with compound 30 min at room temperature, hSIE probe; read-out: EMSA IC50

IC50 [nM] | Structure (SMILES)
664 ± 167 | NC(=O)c1ccc(N(Cc2ccc(C3CCCCC3)cn2)C(=O)[C@H]2CCN2S(=O)(=O)c2c(F)c(F)c(F)c(F)c2F)cc1O [Example 143, (R)—N-(4-carbamoyl-3-hydroxyphenyl)-N-((5-cyclohexylpyridin-2-yl)methyl)-1-((perfluorophenyl)sulfonyl)azetidine-2-carboxamide]
2070 ± 120 | O=C(NO)c1ccc(N(Cc2ccc(C3CCOCC3)cc2)C(=O)[C@H]2CCN2S(=O)(=O)c2c(F)c(F)c(F)c(F)c2F)cc1O [Example 84, (R)—N-(3-hydroxy-4-(hydroxycarbamoyl)phenyl)-1-((perfluorophenyl)sulfonyl)-N-(4-(tetrahydro-2H-pyran-4-yl)benzyl)azetidine-2-carboxamide]
3600 ± 300 | O=C(O)c1ccc(N(Cc2ccc(C3CCCC3)cc2)C(=O)[C@H]2CCCN2S(=O)(=O)c2c(F)c(F)c(F)c(F)c2F)cc1O [Example 79, (R)-4-(N-(4-cyclopentylbenzyl)-1-((perfluorophenyl)sulfonyl)pyrrolidine-2-carboxamido)-2-hydroxybenzoic acid]
3800 ± 800 | O=C(O)c1ccc(N(Cc2ccc(C3CCCCC3)cc2)C(=O)[C@H]2CCCN2S(=O)(=O)c2c(F)c(F)c(F)c(F)c2F)cc1Cl [Example 46, (R)-2-chloro-4-(N-(4-cyclohexylbenzyl)-1-((perfluorophenyl)sulfonyl)pyrrolidine-2-carboxamido)benzoic acid]
1050 ± 125 | COC(=O)c1ccc(N(Cc2ccc(C3CCCCC3)nc2)C(=O)[C@H]2CCN2S(=O)(=O)c2c(F)c(F)c(F)c(F)c2F)cc1O [Example 92, Methyl (R)-4-(N-((6-cyclohexylpyridin-3-yl)methyl)-1-((perfluorophenyl)sulfonyl)azetidine-2-carboxamido)-2-hydroxybenzoate]
2920 ± 120 | O=C(NO)c1ccc(N(Cc2ccc(C3CCOCC3)cc2)C(=O)[C@H]2CCN2S(=O)(=O)c2c(F)c(F)c(F)c(F)c2F)cc1 [Example 87, (R)—N-(4-(hydroxycarbamoyl)phenyl)-1-((perfluorophenyl)sulfonyl)-N-(4-(tetrahydro-2H-pyran-4-yl)benzyl)azetidine-2-carboxamide]
2110 ± 240 | O=C(NO)c1cc(F)c(N(Cc2ccc(C3CCOCC3)cc2)C(=O)[C@H]2CCN2S(=O)(=O)c2c(F)c(F)c(F)c(F)c2F)cc1O [Example 89, (R)—N-(2-fluoro-5-hydroxy-4-(hydroxycarbamoyl)phenyl)-1-((perfluorophenyl)sulfonyl)-N-(4-(tetrahydro-2H-pyran-4-yl)benzyl)azetidine-2-carboxamide]
1320 ± 360 | O=C(NO)c1ccc(N(Cc2ccc(C3CCCCC3)cc2)C(=O)[C@H]2CCN2S(=O)(=O)c2c(F)c(F)c(F)c(F)c2F)cc1O [Example 85, (R)—N-(4-cyclohexylbenzyl)-N-(3-hydroxy-4-(hydroxycarbamoyl)phenyl)-1-((perfluorophenyl)sulfonyl)azetidine-2-carboxamide]
1750 ± 190 | O=C(NO)c1ccc(N(Cc2ccc(C3CCCCC3)cc2)C(=O)[C@H]2CCN2S(=O)(=O)c2c(F)c(F)c(F)c(F)c2F)c(F)c1 [Example 50, (R)—N-(4-cyclohexylbenzyl)-N-(2-fluoro-4-(hydroxycarbamoyl)phenyl)-1-((perfluorophenyl)sulfonyl)azetidine-2-carboxamide]
2510 ± 230 | O=C(NO)c1ccc(N(Cc2ccc(C3CCCCC3)cc2)C(=O)[C@H]2CCN2S(=O)(=O)c2c(F)c(F)c(F)c(F)c2F)cc1 [Example 83, (R)—N-(4-cyclohexylbenzyl)-N-(4-(hydroxycarbamoyl)phenyl)-1-((perfluorophenyl)sulfonyl)azetidine-2-carboxamide]
755 ± 110 | O=C(O)c1ccc(N(Cc2ccc(C3CCCCC3)cn2)C(=O)[C@H]2CCN2S(=O)(=O)c2c(F)c(F)c(F)c(F)c2F)c(F)c1 [Example 108, (R)-4-(N-((5-cyclohexylpyridin-2-yl)methyl)-1-((perfluorophenyl)sulfonyl)azetidine-2-carboxamido)-3-fluorobenzoic acid]
4500 ± 1000 | O=C(O)c1ccc(N(Cc2ccc(C3CCOC3)cc2)C(=O)[C@H]2CCCN2S(=O)(=O)c2c(F)c(F)c(F)c(F)c2F)cc1O (stereo partly drawn) [Example 29, 2-Hydroxy-4-((2R)-1-((pentafluorophenyl)sulfonyl)-N-(4-(tetrahydrofuran-3-yl)benzyl)pyrrolidine-2-carboxamido)benzoic acid]
5400 | O=C(O)c1ccc(N(Cc2ccc(C3CCOCC3)cc2)C(=O)[C@H]2CCCN2S(=O)(=O)c2c(F)c(F)c(F)c(F)c2F)cc1O [Example 27, (R)-2-Hydroxy-4-(1-((pentafluorophenyl)sulfonyl)-N-(4-(tetrahydro-2H-pyran-4-yl)benzyl)pyrrolidine-2-carboxamido)benzoic acid]
1460 ± 151 | O=C([C@H]1CCN1S(=O)(=O)c1c(F)c(F)c(F)c(F)c1F)N(Cc1cnc(C2CCCCC2)cn1)c1ccc2c(=O)[nH]cnc2c1 [Example 151, (R)—N-((5-cyclohexylpyrazin-2-yl)methyl)-N-(4-oxo-3,4-dihydroquinazolin-7-yl)-1-((perfluorophenyl)sulfonyl)azetidine-2-carboxamide]
2350 ± 546 | O=C([C@H]1CCN1S(=O)(=O)c1c(F)c(F)c(F)c(F)c1F)N(Cc1ccc(C2CCCCC2)cc1)c1ccc2nc[nH]c2c1 [Example 99, (R)—N-(M-benzo[d]imidazol-6-yl)-N-(4-cyclohexylbenzyl)-1-((perfluorophenyl)sulfonyl)azetidine-2-carboxamide]
5300 ± 400 | O=C(O)c1ccc(N(Cc2ccc(C3CCCCC3)cc2)C(=O)[C@H]2CCCN2S(=O)(=O)c2c(F)c(F)c(F)c(F)c2F)c(F)c1 [Example 39, (R)-4-(N-(4-cyclohexylbenzyl)-1-((perfluorophenyl)sulfonyl)pyrrolidine-2-carboxamido)-3-fluorobenzoic acid]
4200 ± 700 | Cc1cc(C(=O)O)cc(C)c1N(Cc1ccc(C2CCCCC2)cc1)C(=O)[C@@H](C)N(C)S(=O)(=O)c1c(F)c(F)c(F)c(F)c1F [Example 47, (R)-4-(N-(4-cyclohexylbenzyl)-2-((2,3,4,5,6-pentafluoro-N-methylphenyl)sulfonamido)propanamido)-3,5-dimethylbenzoic acid]
2250 ± 720 | O=C(NO)c1ccc(N(Cc2ccc(C3CCCC3)cc2)C(=O)[C@H]2CCN2S(=O)(=O)c2c(F)c(F)c(F)c(F)c2F)cc1 [Example 88, (R)—N-(4-cyclopentylbenzyl)-N-(4-(hydroxycarbamoyl)phenyl)-1-((perfluorophenyl)sulfonyl) azetidine-2-carboxamide]

Structure (SMILES) | IC50 [nM]
CC(C)(C)c1ccc(CN(C(=O)[C@H]2CCN2S(=O)(=O)c2c(F)c(F)c(F)c(F)c2F)c2ccc(C(=O)O)c(O)c2)cc1 [Example 130, (R)-4-(N-(4-(tert-butyl)benzyl)-1-((perfluorophenyl)sulfonyl)azetidine-2-carboxamido)-2-hydroxybenzoic acid] | 2170 ± 298
O=C([C@H]1CCN1S(=O)(=O)c1c(F)c(F)c(F)c(F)c1F)N(Cc1ccc(C2CCCCC2)cn1)c1ccc2c(=O)[nH]ncc2c1 [Example 102, (R)—N-((5-cyclohexylpyridin-2-yl)methyl)-N-(1-oxo-1,2-dihydrophthalazin-6-yl)-1-((perfluorophenyl)sulfonyl)azetidine-2-carboxamide] | 663 ± 182
O=C(O)c1ccc(N(Cc2ccc(C3CCCC3)cn2)C(=O)[C@H]2CCN2S(=O)(=O)c2c(F)c(F)c(F)c(F)c2F)c(F)c1 [Example 124, (R)-4-(N-((5-cyclopentylpyridin-2-yl)methyl)-1-((perfluorophenyl)sulfonyl)azetidine-2-carboxamido)-3-fluorobenzoic acid] | 1180 ± 187
O=C(O)c1ccc(N(Cc2ccc(C3CCCCC3)cc2)C(=O)[C@H]2CCCCN2S(=O)(=O)c2c(F)c(F)c(F)c(F)c2F)cc1O [Example 32, (R)-4-(N-(4-cyclohexylbenzyl)-1-((pentafluorophenyl)sulfonyl)piperidine-2-carboxamido)-2-hydroxybenzoic acid] | 5400 ± 1600
O=C(O)c1ccc(N(Cc2ccc(C3CCCCC3)cn2)C(=O)[C@H]2CCN2S(=O)(=O)c2c(F)c(F)c(F)c(F)c2F)cc1F [Example 116, (R)-4-(N-((5-cyclohexylpyridin-2-yl)methyl)-1-((perfluorophenyl)sulfonyl)azetidine-2-carboxamido)-2-fluorobenzoic acid] | 856 ± 112
CC(C)(C)c1ccc(CN(C(=O)[C@H]2CCN2S(=O)(=O)c2c(F)c(F)c(F)c(F)c2F)c2ccc(C(=O)O)cc2F)cc1 [Example 131, (R)-4-(N-(4-(tert-butyl)benzyl)-1-((perfluorophenyl)sulfonyl)azetidine-2-carboxamido)-3-fluorobenzoic acid] | 3550 ± 97

Tested on: not listed separately
Assay: Aqueous solubility (PBS, SGF, SIF)
Conditions: not given

solubility in PBS buffer pH 7.4 [μg/mL] | solubility in simulated intestinal fluid (SIF) [µg/mL] | Structure (SMILES)
4.7 | 72 (≈ 109 µM) | C[C@H](C(=O)N(Cc1ccc(C2CCCCC2)cc1)c1ccc(C(=O)NO)cc1F)N(C)S(=O)(=O)c1c(F)c(F)c(F)c(F)c1F [Example 38, (R)-4-(N-(4-Cyclohexylbenzyl)-2-((2,3,4,5,6-pentafluoro-N-methylphenyl)sulfonamido)propanamido)-3-fluoro-N-hydroxybenzamide]

Same assay, conditions: PBS buffer pH 7.4

Solubility PBS [micrograms/milliliter] | Structure (SMILES)
4.7 | C[C@H](C(=O)N(Cc1ccc(C2CCCCC2)cc1)c1ccc(C(=O)NO)cc1F)N(C)S(=O)(=O)c1c(F)c(F)c(F)c(F)c1F [Example 38, (R)-4-(N-(4-Cyclohexylbenzyl)-2-((2,3,4,5,6-pentafluoro-N-methylphenyl)sulfonamido)propanamido)-3-fluoro-N-hydroxybenzamide]

Same assay, conditions: simulated intestinal fluid

Solubility SIF [micrograms/milliliter] | Structure (SMILES)
72 | C[C@H](C(=O)N(Cc1ccc(C2CCCCC2)cc1)c1ccc(C(=O)NO)cc1F)N(C)S(=O)(=O)c1c(F)c(F)c(F)c(F)c1F [Example 38, (R)-4-(N-(4-Cyclohexylbenzyl)-2-((2,3,4,5,6-pentafluoro-N-methylphenyl)sulfonamido)propanamido)-3-fluoro-N-hydroxybenzamide]
